Values of other authors in US7807682B2, “Pyridyl cyanoguanidine compounds” (Leo Pharma A/S, priority 2001, dated 2010).

Tests used:
human tumour cells = settings: nude mice transplanted with human tumour cells, also paclitaxel-resistant tumour cells
[1] = tested on: normal human endothelial cells

## N#CNC(=Nc1ccncc1)NCCCCCCOc1ccc(Cl)cc1 [N-(6-(4-chlorophenoxy)hexyl)-N′-cyano-N″-(4-pyridyl)guanidine]
Human tumour cells
  antitumour activity in vivo: substantial antitumour activity
[1]
  antiproliferative activity on normal human endothelial cells: considerably less antiproliferative activity
